Results on 23 molecules are retold here after US10071076B2, “Methods of treating cancer and other disorders” (Wake Forest University Health Sciences, priority 2010, dated 2018).

Assay [1] relates to intracellular FASN in PC3 cells. The experiment in a line: Inhibition of 14C-acetate incorporation in PC3 cells. Format: cell-based. The settings on record: for % inhibition of 14C-acetate incorp. PC3 cells: two hours drug, then two hour labeling, concentration not given. On the procedure: Inhibition of ^14C-Acetate Incorporation in PC3 Cells.
This test ensures that the compound(s) target intracellular FASN correctly. The ability to inhibit FASN activity in cells will be performed by metabolic labeling of newly synthesized fatty acids with ^14C-acetate, as we have described previously. Briefly, PC-3 cells were seeded in 24-well plates at 50,000 cells per well. After 48 hours media was replaced with fresh media containing either drug or DMSO vehicle. As with the toxicity assay described below, the IC50 for the ability to inhibit FASN will also be determined. Cells will be incubated with a dose of each derivative compound that reflects the IC50's determined in the MTS assays. After two hours, 1 μCi of ^14C-acetate was added to each well for a two hour labeling period. The cells are then washed with PBS and collected by trypsinization. Lipids were finally isolated by Folch extraction and quantified by scintillation counting. The IC50 value for each compound against FASN in cells can then be determined.

The subject of assay [2] is DU-145 prostate tumor cells. The experiment in a line: MTS cell survival assay, DU-145. In kind it is cell-based. The settings on record: Homo sapiens, doses 1-50 μM, time point not given. The procedure: (§1) Prostate tumor (PC3, DU145) and normal fibroblast controls (FS-4) cells were individually seeded in 96-well plates at a density of 4,000 cells per well. After 48 hours the cells are be treated with a dose of each compound (1-50 μM) or DMSO vehicle in fresh media. Cell viability of each cell line was then determined after 24, 48 and 72 hours of treatment with each compound by MTS assay (Roche). MTS assays provide a relative measure of cell viability based on the ability of mitochondria to metabolize a tetrazolium substrate to a colored formazan product. Viability is determined by colorimetric readout at 492 nm and determined relative to vehicle only treated cells. The IC50 for each drug, at each time point, will be determined by curve fitting.
For orientation: Tetrazolium dyes change colour on reduction, which living cells bring about.

Assay [3] concerns the target recombinant thioesterase TE1 (recombinant FASN-TE) (Homo sapiens, UniProt P49327). The experiment in a line: Recombinant thioesterase inhibition assay (TE1). Format: biochemical. The settings on record: for inhibition at 10 µM: 10 μM compound, 30 min pre-incubation at 37° C., 4-MUH substrate; for IC50: recombinant thioesterase, approximate, read-out: approx, IC50 TE1. The procedure:
(§2) Key to Table 2: Recombinant Thioesterase Inhibition Assay.
(§3) Briefly, recombinant FASN-TE (250 nM, 100 mM TRIS pH 7.4, 50 mM NaCl, 1 mM EDTA) was pre-incubated with inhibitors for 30 min at 37° C. prior to the addition of fluorogenic substrate, 4-methylumbelliferyl heptanoate (4-MUH, 120 μM) (56); the reaction was then monitored by following the increase in fluorescence using a Tecan Safire^2 96-well plate reader using 350/450 excitation/emission wavelengths. The IC50 values are then determined for each compound in the series.

The target of assay [4] is recombinant thioesterase TE2 (recombinant FASN-TE) (Homo sapiens, UniProt P49327). The experiment in a line: Recombinant thioesterase inhibition assay (TE2). In kind it is biochemical. The settings on record: for inhibition at 10 µM: 10 μM compound, 30 min pre-incubation at 37° C., 4-MUH substrate; for IC50: recombinant thioesterase, approximate, read-out: approx, IC50 TE2. The procedure:
as §2, §3

For a further assay, the system named is PC3 prostate tumor cells. The experiment in a line: MTS cell survival assay, PC3. The settings on record: doses 1-50 μM, time point not given. Format: cell-based. The procedure:
as §1

The test system of assay [5] is FS-4 normal fibroblast cells. The experiment in a line: MTS cell survival assay, FS-4. In kind it is cell-based. The settings on record: FS-4 normal fibroblasts, doses 1-50 μM, time point not given. The procedure: as §1

For orientation: IC50 means the concentration needed to halve the response being measured. One may read the inhibition as the percentage by which the read-out fell short of the control.

recombinant thioesterase TE1 (recombinant FASN-TE), sequence (P49327 2207-2511 limits assumed): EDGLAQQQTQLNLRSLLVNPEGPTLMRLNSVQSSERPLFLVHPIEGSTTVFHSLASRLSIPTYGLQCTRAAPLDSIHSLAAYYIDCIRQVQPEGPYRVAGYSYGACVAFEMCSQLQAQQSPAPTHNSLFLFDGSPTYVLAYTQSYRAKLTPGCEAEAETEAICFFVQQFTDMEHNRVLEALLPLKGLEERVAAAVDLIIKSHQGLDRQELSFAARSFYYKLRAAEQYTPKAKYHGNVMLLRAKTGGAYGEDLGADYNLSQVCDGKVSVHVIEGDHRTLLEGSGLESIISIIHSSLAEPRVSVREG
recombinant thioesterase TE2 (recombinant FASN-TE), sequence (P49327 2200-2511): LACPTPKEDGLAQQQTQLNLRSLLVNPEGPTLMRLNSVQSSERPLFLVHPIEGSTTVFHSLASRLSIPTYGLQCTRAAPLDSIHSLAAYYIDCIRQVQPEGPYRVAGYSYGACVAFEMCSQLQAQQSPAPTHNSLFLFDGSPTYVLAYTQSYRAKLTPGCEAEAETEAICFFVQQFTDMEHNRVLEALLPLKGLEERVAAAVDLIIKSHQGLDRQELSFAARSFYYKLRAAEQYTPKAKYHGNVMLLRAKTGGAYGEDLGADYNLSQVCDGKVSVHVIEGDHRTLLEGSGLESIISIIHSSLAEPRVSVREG

Consider `COc1cc(O)c2onc(-c3ccccc3)c2c1O` [TPI-00401-00-A], for which the “% inhibition of 14C-acetate incorp. PC3 cells” value (shortened to “% inhibition”) in assay [1] is reported as 29.1%. Further, the IC50 in assay [2] is greater than 50 µM; with PC3 prostate tumor cells, 33 µM. The inhibition at 10 µM in assay [3] turned out to be 40%; in assay [4] it was 55.9%.
In the case of `C=C1C=C(SCC)C(=O)c2c(C(=O)OCC)n[nH]c21` [TPI-00402-00-A], the “% inhibition” value in assay [1] is 90.4%. Also, the IC50 in assay [5] is 20.9 µM; in assay [2], 40 µM; in assay [3], roughly 2.35 µM; in assay [4], roughly 0.56 µM; in the assay on PC3 prostate tumor cells it was 18.8 µM. The inhibition at 10 µM in assay [3] is 66.6%; in assay [4], 95.7%.
As to `C=C1C=C(S)C(=O)c2c(C(=O)OCC)n[nH]c21` [TPI-00403-00-A], the IC50 in assay [1] (Homo sapiens, PC-3, read-out: IC50 of inhibition of 14C-acetate incorp. PC3 cells) was 6.75 µM; in assay [5] it was 9.15 µM; in assay [2], 15.6 µM; in assay [3], roughly 3.9 µM; in assay [4], roughly 2.42 µM; in the assay on PC3 prostate tumor cells it was 3.25 µM. Also, the “% inhibition” value in assay [1] is 97%. The inhibition at 10 µM was 69.3% in assay [3] and 79.3% in assay [4].
`CCOC(=O)c1n[nH]c2c1C(=O)C(SCC(=O)OC)=CC2=O` [TPI-00405-00-A]: in assay [3], the inhibition at 10 µM was 69.5% and the 50% inhibitory concentration (IC50) was roughly 2.78 µM. In addition, in assay [4], the inhibition at 10 µM was 96.8% and the half-inhibitory concentration (IC50) is roughly 0.41 µM.
For `CCOC(=O)c1n[nH]c2c1C(=O)C(SCc1cccc(F)c1)=CC2=O` [TPI-00406-00-A], in assay [1], the “% inhibition” value turned out to be 37.7%. In addition, the inhibition at 10 µM came to 73.6% in assay [3] and 96% in assay [4].
Consider `CCOC(=O)c1n[nH]c2c1C(=O)C(SCc1ccc(F)cc1F)=CC2=O` [TPI-00407-00-A], for which the “% inhibition” value in assay [1] was 37.8%. Besides, the results for the inhibition at 10 µM in assay [3] and in assay [4] were 66% and 94.9%, respectively.
As for `CCOC(=O)c1n[nH]c2c1C(=O)C(SCc1ccc(C(F)(F)F)cc1)=CC2=O` [TPI-00408-00-A], the “% inhibition” value in assay [1] is 89.9%. The IC50 in assay [5] came to 22.5 µM; in the assay on PC3 prostate tumor cells, 18.5 µM. Also, the results for the inhibition at 10 µM in assay [3] and in assay [4] were 67.9% and 96.2%, respectively.
In the case of `CCOC(=O)c1n[nH]c2c1C(=O)C(SCC(=O)NC)=CC2=O` [TPI-00409-00-A], the “% inhibition” value in assay [1] stood at 0%. The inhibition at 10 µM is 53.5% in assay [3] and 92.2% in assay [4].
For `CCOC(=O)c1n[nH]c2c1C(=O)C(SCCCCO)=CC2=O` [TPI-00410-00-A], in that order: 1.85%, 59.6% and 91.7%.
In the case of `CCOC(=O)c1n[nH]c2c1C(=O)C(Sc1ccc(-c3ccccc3)cc1)=CC2=O` [TPI-00411-00-A], in assay [1], the “% inhibition” value worked out at 0.75%. In addition, the inhibition at 10 µM in assay [3] came to 70.5%; in assay [4], 97.4%.
With `CCOC(=O)c1n[nH]c2c1C(=O)C(Sc1cccc(OC)c1)=CC2=O` [TPI-00412-00-A], the “% inhibition” value in assay [1] was 9.95%. Besides, the results for the inhibition at 10 µM in assay [3] and in assay [4] were 81.6% and 98%, respectively.
As for `CCOC(=O)c1n[nH]c2c1C(=O)C(SCCOCCOC)=CC2=O` [TPI-00413-00-A], in assay [1], the “% inhibition” value is on record as 20.2%. For the same molecule, the inhibition at 10 µM in assay [3] came to 50.2%; in assay [4] it was 94.8%.
Consider `CCOC(=O)c1n[nH]c2c1C(=O)C(SC1CCCC1)=CC2=O` [TPI-00414-00-A], for which the “% inhibition” value in assay [1] came out at 92.4%. The 50% inhibitory concentration (IC50) in assay [5] is 33 µM; in the assay with PC3 prostate tumor cells it was 25 µM. In addition, the inhibition at 10 µM in assay [3] was determined as 52.2%; in assay [4], 86.4%.
With `CCOC(=O)c1n[nH]c2c1C(=O)C(Sc1ccccc1)=CC2=O` [TPI-00415-00-A], the “% inhibition” value in assay [1] came to 7.05%. The inhibition at 10 µM was found to be 79.7% in assay [3] and 97.5% in assay [4].
For `CCOC(=O)c1n[nH]c2c1C(=O)C(SCc1ccc(OC)cc1)=CC2=O` [TPI-00416-00-A], the “% inhibition” value in assay [1] is given as 89.9%. Besides, the IC50 in assay [5] came to 33 µM; in the assay with PC3 prostate tumor cells, 25.8 µM. Moreover, the inhibition at 10 µM was 64.3% in assay [3] and 96.5% in assay [4].
As for `CCOC(=O)c1n[nH]c2c1C(=O)C(SCc1ccc(Cl)cc1)=CC2=O` [TPI-00417-00-A], in assay [1], the “% inhibition” value is listed as 96.1%. Besides, the IC50 was 21 µM in assay [5] and 13.8 µM in the assay on PC3 prostate tumor cells. Besides, the inhibition at 10 µM in assay [3] is 74.8%; in assay [4] it was 97.8%.
In the case of `CCOC(=O)c1n[nH]c2c1C(=O)C(SCc1ccco1)=CC2=O` [TPI-00418-00-A], in assay [1], the “% inhibition” value is on record as 92.2%. Further, the half-inhibitory concentration (IC50) worked out at 37 µM in assay [5] and 31.7 µM in the assay with PC3 prostate tumor cells. For the same molecule, the inhibition at 10 µM in assay [3] worked out at 65.5%; in assay [4], 95.9%.
For `CCCCCCCSC1=CC(=O)c2[nH]nc(C(=O)OCC)c2C1=O` [TPI-00419-00-A], in that order: 67.95%, 50 µM, 32 µM, 66.2% and 95.8%.
As to `CCOC(=O)c1n[nH]c2c1C(=O)C(SCCC(=O)OC)=CC2=O` [TPI-00420-00-A], the “% inhibition” value in assay [1] is given as 68.5%. Moreover, the half-inhibitory concentration (IC50) is 42 µM in assay [5] and 37.5 µM in the assay on PC3 prostate tumor cells. The figures for the inhibition at 10 µM in assay [3] and in assay [4] were 62% and 95.3%, respectively.
As to `CNC(=O)CSC1=CC(=O)c2[nH]ncc2C1=O` [TPI-00421-00-A], the “% inhibition” value in assay [1] worked out at 70%. The half-maximal inhibitory concentration (IC50) in assay [5] was 41 µM; in assay [3], roughly 1.02 µM; in the assay on PC3 prostate tumor cells, 17.9 µM. Further, the inhibition at 10 µM in assay [3] and in assay [4] was 100% throughout.
`CCOC(=O)c1n[nH]c2c1C(=O)C(SCC(=O)Nc1ccccc1)=CC2=O` [TPI-00422-00-A]: the “% inhibition” value in assay [1] is recorded as 0%. The values for the half-inhibitory concentration (IC50) (in assay [5]; with PC3 prostate tumor cells) were greater than 50 µM and 48 µM, respectively. In addition, the inhibition at 10 µM was found to be 22.9% in assay [3] and 86.8% in assay [4].
With `O=C(Nc1ccccc1)c1n[nH]c2c1C(=O)C(SCCCCO)=CC2=O` [TPI-00423-00-A], in assay [1], the “% inhibition” value is recorded as 87.25%. Besides, the 50% inhibitory concentration (IC50) was 25 µM in assay [5] and 20 µM in the assay with PC3 prostate tumor cells. Besides, the inhibition at 10 µM in assay [3] worked out at 79.8%; in assay [4], 98%.
For `O=C(Nc1ccccc1)c1n[nH]c2c1C(=O)C(SCc1ccc(C(F)(F)F)cc1)=CC2=O` [TPI-00424-00-A], in assay [1], the “% inhibition” value stood at 0%. Moreover, the values for the half-maximal inhibitory concentration (IC50) (in assay [5]; with PC3 prostate tumor cells) were 50 µM and 27 µM, respectively. The figures for the inhibition at 10 µM in assay [3] and in assay [4] were 92.6% and 100%, respectively.
